Measured values taken from US6559164B1, “Substituted pyrroles suitable for continuous infusion” (Hoffmann-La Roche Inc., priority 1999, dated 2003).
Counter-ions that a name gives are not always drawn.

Key:
[1] = Plasma conversion (degradation in plasma to the active metabolite); type: in vitro ADME; conditions: human or rodent plasma at 37° C., percent degradation
Protocol: “Plasma conversion” with respect to compounds of formula I means the degradation (enzymatic and/or non-enzymatic) of such compound in human or rodent plasma at 37° C. from 30 minutes to 6 hours to give 3-(1-methyl-3-indolyl)-4-(1-methyl-6-nitro-3-indolyl)-1H-pyrrole-2,5-dione, a pharmaceutically active metabolite of compounds of formula I, as well as pharmaceutically active metabolites thereof. This conversion is typically given as the percent degradation over a specified time frame.

[2] = Stability in solution for intravenous administration (release of 3-(1-methyl-3-indolyl)-4-(1-methyl-6-nitro-3-indolyl)-1H-pyrrole-2,5-dione); type: physicochemical; conditions: 72 hours at room temperature in a mixture of acetonitrile and saline or dextrose water; parent pyrrole-2,5-dione detected
Protocol: “Stability” is an overall assessment of the ability of a compound of formula I to withstand degradation in a typical solution used for the administration of drugs intravenously. Specifically, it refers to the ability of any given compound of formula I to release 3-(1-methyl-3-indolyl)-4-(1-methyl-6-nitro-3-indolyl)-1H-pyrrole-2,5-dione, over a 72 hour period in a mixture of acetonitrile and saline or dextrose water. The
“stability” of a compound of formula I is “very good” if the less than 1% 3-(1-Methyl-3-indolyl)-4-(1-methyl-6-nitro-3-indolyl)-1H-pyrrole-2,5-dione is detected, “good” if less than 2.5% 3-(1-Methyl-3-indolyl)-4-(1-methyl-6-nitro-3-indolyl)-1H-pyrrole-2,5-dione is detected, and “fair” if less than 5% 3-(1-Methyl-3-indolyl)-4-(1-methyl-6-nitro-3-indolyl)-1H-pyrrole-2,5-dione is detected after 72 hours incubation at room temperature.

Molecule | Plasma Conversion ([1]; @ 30 min) [% @ 30 min] | Stability [2] | further results
Cn1cc(C2=C(c3cn(C)c4cc([N+](=O)[O-])ccc34)C(=O)N(COC(=O)Cc3ccncc3)C2=O)c2ccccc21 [Example 3c, pyridin-4-yl acetic acid 3-(1-methyl-1H-indol-3-yl)-4-(1-methyl-6-nitro-1H-indol-3-yl)-2,5-dioxo-2,5-dihydro-pyrrol-1-ylmethyl ester] | 60 | Good | 
[[3-(1-Methyl-1H-indol-3-yl)-4-(1-methyl-6-nitro-1H-indol-3-yl)-2,5-dioxo-2,5-dihydro-pyrrol-1-yl]methoxycarbonyl]-4-phenyl-O-methylpolyethylene Glycol 500 [Example 15] |  | Good | Plasma Conversion ([1]; @ 2 hrs): 100% @ 2 hrs
Cn1cc(C2=C(c3cn(C)c4cc([N+](=O)[O-])ccc34)C(=O)N(CO)C2=O)c2ccccc21 |  |  | melting point: 209 to 211 °C
CCCCCCC=CCCCCCCCC(=O)OCN1C(=O)C(c2cn(C)c3ccccc23)=C(c2cn(C)c3cc([N+](=O)[O-])ccc23)C1=O [Example 3g, hexadec-9-enoic 3-(1-methyl-1H-indol-3-yl)-4-(1-methyl-6-nitro-1H-indol-3-yl)-2,5-dioxo-2,5-dihydro-pyrrol-1-ylmethyl ester] |  | Good | 
Cn1cc(C2=C(c3cn(C)c4cc([N+](=O)[O-])ccc34)C(=O)N(COC(=O)c3cccnc3)C2=O)c2ccccc21 [Example 3a, nicotinic acid 3-(1-methyl-1H-indol-3-yl)-4-(1-methyl-6-nitro-1H-indol-3-yl)-2,5-dioxo-2,5-dihydro-pyrrol-1-ylmethyl ester] | 70 | Good | 
Cn1cc(C2=C(c3cn(C)c4cc([N+](=O)[O-])ccc34)C(=O)N(COC(=O)NCCOP(=O)(O)O)C2=O)c2ccccc21 [Example 20, (2-Phosphonooxy-ethyl)-carbamic Acid 3-(1-Methyl-1H-indol-3-yl)-4-(1-methyl-6-nitro-1H-indol-3-yl)-2,5-dioxo-2,5-dihydro-pyrrol-1-ylmethyl Ester] |  | Good | 
Cn1cc(C2=C(c3cn(C)c4cc([N+](=O)[O-])ccc34)C(=O)N(C(=O)NCCCCOP(=O)([O-])[O-])C2=O)c2ccccc21.[Na+].[Na+] [Example 24, Phosphoric Acid Mono-(4-{[3-(1-methyl-1H-indol-3-yl)-4-(1-methyl-6-nitro-1H-indol-3-yl)-2,5-dioxo-2,5-dihydro-pyrrole-1-carbonyl]-amino}-butyl) Ester Sodium Salt] |  | Good | Plasma Conversion ([1]; @ 6 hrs): 10% @ 6 hrs
Cn1cc(C2=C(c3cn(C)c4cc([N+](=O)[O-])ccc34)C(=O)N(COC(=O)Cc3cccnc3)C2=O)c2ccccc21 [Example 3d, pyridin-3-yl acetic acid 3-(1-methyl-1H-indol-3-yl)-4-(1-methyl-6-nitro-1H-indol-3-yl)-2,5-dioxo-2,5-dihydro-pyrrol-1-ylmethyl ester] | 70 | Good | 
Cn1cc(C2=C(c3cn(C)c4cc([N+](=O)[O-])ccc34)C(=O)N(COC(=O)c3ccc(OP(=O)(O)O)cc3)C2=O)c2ccccc21 [Example 14, 4-Phosphonooxy-benzoic Acid 3-(1-Methyl-1H-indol-3-yl)-4-(1-methyl-6-nitro-1H-indol-3-yl)-2,5-dioxo-2,5-dihydro-pyrrol-1-ylmethyl Ester Monosodium Salt] |  | Good | Plasma Conversion ([1]; @ 4 hrs): 5% @ 4 hrs
Cn1cc(C2=C(c3cn(C)c4cc([N+](=O)[O-])ccc34)C(=O)N(COC(=O)CCC(=O)O)C2=O)c2ccccc21 [Example 3f, succinic acid mono-[3-(1-methyl-1H-indol-3-yl)-4-(1-methyl-6-nitro-1H-indol-3-yl)-2,5-dioxo-2,5-dihydro-pyrrol-1-ylmethyl] ester] | 20 | Good | 
CCN(CC)CCNC(=O)N1C(=O)C(c2cn(C)c3ccccc23)=C(c2cn(C)c3cc([N+](=O)[O-])ccc23)C1=O [Example 21, 3-(1-Methyl-1H-indol-3-yl)-4-(1-methyl-6-nitro-1H-indol-3-yl)-2,5-dioxo-2,5-dihydro-pyrrole-1-carboxylic Acid (2-Diethylamino-ethyl)-amide] |  | Fair | Plasma Conversion ([1]; @ 1 hr): 100% @ 1 hr
Cn1cc(C2=C(c3cn(C)c4cc([N+](=O)[O-])ccc34)C(=O)N(COC(=O)C3CCNCC3)C2=O)c2ccccc21 [Example 8a, piperidine-4-carboxylic acid 3-(1-methyl-1H-indol-3-yl)-4-(1-methyl-6-nitro-1H-indol-3-yl)-2,5-dioxo-2,5-dihydro-pyrrol-1-ylmethyl ester trifluoroacetate] | 30 | Good | 
Cn1cc(C2=C(c3cn(C)c4cc([N+](=O)[O-])ccc34)C(=O)N(COC(=O)COCCOCCOCCOCC(=O)O)C2=O)c2ccccc21 [Example 3h, [2-[2-(2-carboxymethoxy-ethoxy)-ethoxy]-ethoxy] acetic acid-3-(1-methyl-1H-indol-3-yl)-4-(1-methyl-6-nitro-1H-indol-3-yl)-2,5-dioxo-2,5-dihydro-pyrrol-1-ylmethyl ester] |  | Fair | 
Cn1cc(C2=C(c3cn(C)c4cc([N+](=O)[O-])ccc34)C(=O)N(COC(=O)c3ccc[n+](C)c3)C2=O)c2ccccc21 [Example 12, 1-Methyl-3-[3-(1-methyl-1H-indol-3-yl)-4-(1-methyl-6-nitro-1H-indol-3-yl)-2,5-dioxo-2,5-dihydro-pyrrol-1-ylmethoxycarbonyl]-pyridinium; Trifluoroacetate] | 60 | Fair | 
